# Laboratory results published in patent US8426429B2, “2-amino-quinazoline derivatives useful as inhibitors of β-secretase (BACE)” (Jansssen Pharmaceutica N.V., priority 2004, dated 2013).
# Biological target: T1, β-secretase (BACE) (Homo sapiens, UniProt P56817)
# T1 construct: purchased Panvera
# Assay: BACE FS1 % Inhibition Assay
# Assay type: biochemical
# In short: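 Percent inhibition per compound concentration was referenced to vehicle-treated enzyme and no-enzyme wells. Enzyme at a 4 μg/mL working stock plus compound was mixed for 20 min at room temperature before the FS1 substrate (300 μg/mL working stock) was added for a 1 h room-temperature reaction.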
# T1 sequence (P56817 46-501): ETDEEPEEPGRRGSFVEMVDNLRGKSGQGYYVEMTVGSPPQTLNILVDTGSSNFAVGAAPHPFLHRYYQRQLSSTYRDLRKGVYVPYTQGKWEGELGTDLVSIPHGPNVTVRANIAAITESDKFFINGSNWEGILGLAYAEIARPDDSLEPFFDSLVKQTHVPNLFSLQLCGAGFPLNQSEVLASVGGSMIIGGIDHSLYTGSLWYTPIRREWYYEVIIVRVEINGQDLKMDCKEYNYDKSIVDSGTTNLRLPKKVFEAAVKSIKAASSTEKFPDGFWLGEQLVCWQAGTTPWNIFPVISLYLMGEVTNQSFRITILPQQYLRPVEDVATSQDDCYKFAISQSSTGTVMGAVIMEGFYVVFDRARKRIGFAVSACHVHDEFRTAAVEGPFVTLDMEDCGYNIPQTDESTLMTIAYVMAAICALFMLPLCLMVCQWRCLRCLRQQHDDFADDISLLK
Compound,% Inhibition (FS) (0.3 μM test compound),% Inhibition (FS) (1 μM test compound),% Inhibition (FS) (3 μM test compound),"% Inhibition (FS) (0.3 μM compound, FS1 substrate)","% Inhibition (FS) (1 μM compound, FS1 substrate)","% Inhibition (FS) (3 μM compound, FS1 substrate)",% Inhibition (FS) (10 μM test compound)
COc1ccc(-c2ccc3c(c2)CN(C(CCC(=O)N(C)C2CCCCC2)C2CCCCC2)C(N)=N3)cc1 (stereo not shown) [Compound 226],<30%,<30%,54%,,,,
CN(C(=O)CCC(C1CCOCC1)N1Cc2cc(Oc3ccccc3)ccc2N=C1N)C1CCCCC1 (stereo not shown) [Compound 619],119%,118%,125%,,,,
CCCCC(CC)C(=O)NCCN1Cc2cc(-c3ccccc3F)ccc2N=C1N (stereo not shown) [Compound 648],39%,74%,104%,,,,
NC1=Nc2ccc(Oc3ccccc3)cc2CN1C(CNC(=O)C1CCCCC1)Cc1ccc(O)cc1 (stereo not shown) [Compound 614],<30%,<30%,<30%,,,,
CC(C)CCC(=O)NCCN1Cc2cc(-c3ccc4ccccc4c3)ccc2N=C1N [Compound 668],,,,<30%,<30%,<30%,
CN(C(=O)c1cccc(CN2Cc3cc(Sc4cccc5ccccc45)ccc3N=C2N)c1)C1CCCCC1 [Compound 414],<30%,<30%,27%,,,,
NC1=Nc2ccc(-c3ccccc3F)cc2CN1CCNC(=O)CCC(F)(F)F [Compound 680],,,,42%,75%,90%,
CC(=O)c1cccc(-c2ccc3c(c2)CN(CCNC(=O)Cc2ccccc2)C(N)=N3)c1 [Compound 598],<30%,<30%,36%,,,,
Cc1ccccc1-c1ccc2c(c1)CN(CCNC(=O)CC(C)C(F)(F)F)C(N)=N2 (stereo not shown) [Compound 679],,,,78%,99%,,
CC(C)C(CC(=O)N(C(C)C)C1CCCCC1)N1Cc2cc(Oc3ccccc3)ccc2N=C1N (stereo not shown) [Compound 202],<30%,<30%,<30%,,,,
CN(C(=O)c1cccc(CN2Cc3cc(-c4ccncc4)ccc3N=C2N)c1)C1CCCCC1 [Compound 168],<30%,<30%,<30%,,,,
COc1ccccc1-c1ccc2c(c1)CN([C@@H](CCC(=O)N(C)Cc1cc(-c3ccccc3)on1)C1CCCCC1)C(N)=N2 [Compound 719],,,,31%,<30%,81%,
CC(=O)N1CCC(C(=O)NCCN2Cc3cc(-c4ccccc4C)ccc3N=C2N)CC1 [Compound 695],,,,<30%,<30%,54%,
NC1=Nc2ccc(-c3cnc4ccccc4c3)cc2CN1CCNC(=O)C1CCC1 [Compound 670],,,,<30%,<30%,44%,
NC1=Nc2ccc(-c3ccccc3)cc2CN1CCNC(=O)C1CCC(C(F)(F)F)CC1 (stereo not shown) [Compound 701],,,,<30%,<30%,54%,
CCCC(CCCC(=O)N(C)C1CCN(C)CC1)N1Cc2cc(Oc3ccccc3)ccc2N=C1N (stereo not shown) [Compound 106],,,103%,,,,114%
Cc1cc(C)cc(Oc2ccc3c(c2)CN(Cc2cccc(C(=O)N(C)C4CCCCC4)c2)C(N)=N3)c1 [Compound 228],<30%,49%,40%,,,,
CN(C)c1ccc(C(=O)NCCN2Cc3cc(Oc4ccccc4)ccc3N=C2N)cc1 [Compound 189],<30%,<30%,<30%,,,,
Cc1cccc(Sc2ccc3c(c2)CN(Cc2cccc(C(=O)N(C)C4CCCCC4)c2)C(N)=N3)c1 [Compound 405],43%,106%,118%,,,,
NC1=Nc2ccc(C3=CCCC3)cc2CN1CCNC(=O)C1CCC(C(F)(F)F)CC1 (stereo not shown) [Compound 707],,,,<30%,<30%,<30%,
